In ChEMBL document CHEMBL1155501, “Studies on two types of PTP1B inhibitors for the treatment of type 2 diabetes: Hologram QSAR for OBA and BBB analogues” (Bioorg Med Chem Lett, 2010):

These molecules were tested against T1, Tyrosine-protein phosphatase non-receptor type 1 (Homo sapiens, UniProt P18031) (assay: Binding affinity to human recombinant PTP1B).
T1 sequence (P18031 whole entry): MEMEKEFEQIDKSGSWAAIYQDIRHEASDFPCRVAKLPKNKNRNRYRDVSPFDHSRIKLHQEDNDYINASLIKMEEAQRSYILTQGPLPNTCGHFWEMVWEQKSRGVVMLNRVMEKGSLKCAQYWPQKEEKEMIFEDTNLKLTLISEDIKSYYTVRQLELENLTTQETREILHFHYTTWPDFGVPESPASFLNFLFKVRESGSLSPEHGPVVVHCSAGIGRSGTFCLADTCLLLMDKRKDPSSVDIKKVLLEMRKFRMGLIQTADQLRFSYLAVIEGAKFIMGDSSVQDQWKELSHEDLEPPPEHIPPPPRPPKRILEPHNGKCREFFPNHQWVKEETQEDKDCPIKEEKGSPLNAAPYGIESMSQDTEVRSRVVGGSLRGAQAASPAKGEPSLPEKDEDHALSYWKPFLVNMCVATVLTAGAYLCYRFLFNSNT

| IC50 | Ki | Structure (SMILES) |
| --- | --- | --- |
| 2.19 µM | – | CCCCc1sc2ccccc2c1-c1ccc(-c2ccc(OCC(=O)O)cc2)cc1 |
| 0.447 µM | – | Oc1c(Br)cc(-c2ccc(-c3c(Cc4ccccc4)sc4ccccc34)cc2)cc1Br |
| – | 6.03 µM | O=C(O)C(=O)Nc1sc2c(c1C(=O)O)CCS(=O)(=O)C2 |
| 0.12 µM | – | O=C(O)[C@H](Oc1ccc(-c2ccc(-c3c(Cc4ccc(O)cc4O)sc4ccccc34)cc2)cc1)c1ccccc1 |
| 0.457 µM | – | O=C(O)/C=C/C(=O)Nc1cc(-c2ccc(-c3c(Cc4ccccc4)oc4ccccc34)cc2)ccc1O |
| – | 1260 µM | Cc1cccc(C(=O)O)c1NC(=O)C(=O)O |
| 0.692 µM | – | CCCCc1sc2ccccc2c1-c1ccc(-c2ccc(O)cc2)cc1 |
| – | 6.03 µM | Nc1cccc(-c2cc(NC(=O)C(=O)O)c(C(=O)O)s2)c1 |
